Experimental data: patent publication US4352880A (priority 1979, dated 1982)
Several values for one entry are separate records, joined by “and”; a condition that tells them apart may be missing. Equal values may be shown once. Read-outs that look alike come from different tables or passages of the source.

What was measured:
physchem [1] = conditions: ta-1538 agar
physchem [2] = conditions: agar
S. typhimurium TA1535 [3] = tested on: S. typhimurium TA1535
physchem [4] = conditions: minimal medium, phosphate buffer, pH 7
S. typhimurium TA1535 [5] = tested on: S. typhimurium TA1535; remark: listed apart in the source
S. typhimurium TA1535 [6] = assay: Homogeneous bioassay with microsomal activation, minimum mutagenic concentration; conditions: metabolic activation, 90% confidence intervals
[7] = Diffusion bioassay for mutagenicity with microsomal activation (procarcinogens); conditions: agar plates
S. typhimurium TA1535 [8] = assay: as above; conditions: for Cmut (minimal mutagenic concentration): brackets: one standard deviation; for Cmut /co /s: from figure; for Cmut threshold value (mean): diffusion method, metabolic activation, brackets: 90% confidence intervals
[9] = half-lifetime .tau.1/2 from diffusion bioassay

Compound: CC(=O)Nc1ccc2c(c1)Cc1ccccc1-2 [2-AAF, a-acetyl amino fluorene]
- half-life (physchem [1]): 0.446 h

Compound: CC(=O)OCN(C)N=O [AcDMN, Acetoxydimethylnitrosoamine]
- half-life (physchem [2]; .tau.1/2 Parametrically): 34.1 h
- half-life (physchem [2]; [9]): 19.1 h
- Cmut threshold value (mean) (S. typhimurium TA1535 [3]): 1.7(1.07, 3.53) μg/ml
- half-lifetime .tau.1/2 from diffusion bioassay (S. typhimurium TA1535 [3]; agar): 34.5 h
- half-life (physchem [4]): 30.4 h
- C mut^hom threshold value (S. typhimurium TA1535 [5]): 1.01 ± 1.48

Compound: CCOS(C)(=O)=O [EMS, ethyl-methane-sulfonate]
- half-life (physchem [2]; .tau.1/2 (Table 16)): 14.5 h
- Cmut threshold value (mean) (S. typhimurium TA1535 [3]): 20.3(13.17, 26.97) μg/ml
- half-life (physchem [4]): 13.8 h
- C mut^hom threshold value (S. typhimurium TA1535 [5]): 16.85 ± 10.85

Compound: COc1ccc2nc3cc(Cl)ccc3c(NCCCNCCCl)c2c1 [ICR-191]
- half-life (physchem [1]): 2.09 h
- rmut (radius of mutagenic zone) (TA-1538; Co 10 mg/ml): 0.73 cm
- rmut (radius of mutagenic zone) (TA-1538; Co 100 mg/ml): 1.16 cm
- rmut (radius of mutagenic zone) (TA-1538; Co 1000 mg/ml): 1.52 cm

Compound: CN(N=O)C(N)=O [MNU, N-Methyl-N-nitrosourea]
- half-life (physchem [2]; [9]): 0.628 h
- Cmut threshold value (mean) (S. typhimurium TA1535 [3]): 0.27(0.13, 0.45) μg/ml
- half-life (physchem [4]): 0.599 h
- C mut^hom threshold value (S. typhimurium TA1535 [5]): 0.116 ± 2.52

Compound: O=NN1CCOCC1 [NM, N-nitrosomorpholine]
- C mut^hom threshold value (S. typhimurium TA1535 [6]): 0.7 ± 3.6
- half-life [7]: 6 h
- rmut (radius of mutagenic zone) (S. typhimurium TA1535 [8]; 0.25 μl/disc, R = 4.25, TA 1535): 1.31 ± 0.12 cm and 1.31 ± 0.1 cm
- rmut /R (S. typhimurium TA1535 [8]; 0.25 μl, co /s 0.29 mg/ml, R = 4.25 cm): 0.3 ± 0.02
- Cmut (minimal mutagenic concentration) (S. typhimurium TA1535 [8]; 0.25 μl, co /s 0.29 mg/ml): 0.64(0.436, 0.785) μg/ml
- Cmut /co /s (S. typhimurium TA1535 [8]; 0.25 μl, co /s 0.29 mg/ml): 2.2 × 10^-3
- rmut (radius of mutagenic zone) (S. typhimurium TA1535 [8]; 2.5 μl/disc, R = 4.25, TA 1535): 2.25 ± 0.12 cm
- rmut /R (S. typhimurium TA1535 [8]; 2.5 μl, co /s 0.91 mg/ml, R = 4.25 cm): 0.52 ± 0.02
- Cmut (minimal mutagenic concentration) (S. typhimurium TA1535 [8]; 2.5 μl, co /s 0.91 mg/ml): 0.699(0.465, 0.902) μg/ml
- Cmut /co /s (S. typhimurium TA1535 [8]; 2.5 μl, co /s 0.91 mg/ml): 2.4 × 10^-4
- rmut (radius of mutagenic zone) (S. typhimurium TA1535 [8]; 25 μl/disc, R = 4.25, TA 1535): 3.6 ± 0.12 cm and 3.6 ± 0.3 cm
- rmut /R (S. typhimurium TA1535 [8]; 25 μl, co /s 29.1 mg/ml, R = 4.25 cm): 0.84 ± 0.07
- Cmut (minimal mutagenic concentration) (S. typhimurium TA1535 [8]; 25 μl, co /s 29.1 mg/ml): 0.276(0.119, 0.505) μg/ml
- Cmut /co /s (S. typhimurium TA1535 [8]; 25 μl, co /s 29.1 mg/ml): 9.5 × 10^-6
- Cmut threshold value (mean) (S. typhimurium TA1535 [8]): 0.54(0.23, 0.80) μg/ml

Compound: O=NN1CCCC1 [NP, nitrosopyrrolidine]
- C mut^hom threshold value (S. typhimurium TA1535 [6]): 0.58 ± 4.8
- half-life [7]: 5.1 h
- rmut (radius of mutagenic zone) (S. typhimurium TA1535 [8]; 0.25 μl/disc, R = 4.25 cm, 3 days): 1.6 ± 0.18 cm
- Cmut (minimal mutagenic concentration) (S. typhimurium TA1535 [8]; 0.25 μl, co /s 0.27 mg/ml): 0.233(0.143, 0.344) μg/ml
- rmut (radius of mutagenic zone) (S. typhimurium TA1535 [8]; 2.5 μl/disc, R = 4.25 cm, 3 days): 2.5 ± 0.28 cm
- Cmut (minimal mutagenic concentration) (S. typhimurium TA1535 [8]; 2.5 μl, co /s 2.71 mg/ml): 0.233(0.125, 0.449) μg/ml
- rmut (radius of mutagenic zone) (S. typhimurium TA1535 [8]; 10 μl/disc, R = 4.25 cm, 3 days): 3.43 ± 0.32 cm and 3.4 ± 0.32 cm
- Cmut (minimal mutagenic concentration) (S. typhimurium TA1535 [8]; 10 μl, co /s 10.85 mg/ml): 0.097(0.048, 0.212) μg/ml
- rmut (radius of mutagenic zone) (S. typhimurium TA1535 [8]; 25 μl/disc, R = 4.25 cm, 3 days): 3.7 ± 0.31 cm
- Cmut (minimal mutagenic concentration) (S. typhimurium TA1535 [8]; 25 μl, co /s 27.1 mg/ml): 0.108(0.082, 0.25) μg/ml
- Cmut threshold value (mean) (S. typhimurium TA1535 [8]): 0.17(0.10, 0.37) μg/ml
